US5616684A, “Cyclic peptides and use thereof” (priority 1991, dated 1997)
Read-outs that look alike come from different tables or passages of the source.

Key:
[1] = amide bond
[2] = system: ETB receptor (guinea pig kidney crude receptor membrane fraction); assay: ETB Radio Receptor Assay *2; type: binding; settings: relative activity (Example 8 given as 100), 125I-endothelin-1, 37° C., 90 minutes
Method: ETB Radio Receptor Assay *2
In the endothelin radio receptor assay, guinea pigs' kidneys were used. Guinea pigs (Std Hartrey, male 250 g, Japan SLC Ltd.) were made to have a cerebral concussion and sacrificed by bleeding from carotid arteries to pick up the kidneys and removed fat therefrom to prepare the kidneys. The obtained kidneys were sliced and homogenized by politron homogenizer in 20 ml of 50 mM Tris-HCl buffer [pH 7.4; 20 mM NaHCO3, 0.1 mM PMSF (Phenylmethylsulfonyl Fluoride), 1 mM EDTA (Ethylenediaminetetraacetic acid)] per one kidney. The homogenized kidney was applied to a centrifugation at 1,000×g for 15 minutes and the supernatant was further applied to a centrifugation for 20 minutes at 30,000×g. The resulting precipitate was twice washed with 50 mM Tris-HCl buffer (pH 7.4) containing 0.1 mM PMSF, 1 mM EDTA. The resultant was stored at -80 ° C. as a crude receptor membrane fraction and was used as the suspension in the following buffer when necessary.
740 Bq of ^125 I-endothelin-1 (81.4 TBq/mmol, Du Pont, USA) as a radio ligand, the crude membrane fraction (2.1 μg protein) and samples were added to the following buffer. The reaction was performed at 37° C., for 90 minutes in 0.2 ml of the buffer [50 mM Tris-HCl buffer (pH 7.4) containing 0.1 mM PMSF, 1 mM EDTA, 0.2% bovine serum albumin].
The reaction was stopped by fast filtration on a glass filter (GF/B, Wattman, USA) by Cell Harvestor (290 PHD, Cambridge-Technology, Great Britain), and the filter was three times washed with 50 mM Tris-HCl buffer (pH 7.4). Radio activity remained on the filter was assayed by a gamma counter.

[3] = molecular target: T1, endothelin receptor A (ETA) (Sus scrofa, UniProt Q29010); assay: Assay of Affinity for Receptor (1): Binding Activity on ETA Receptor; set-up: key to Binding Activity on ET Receptor (R. act.) ETA: relative binding activity; reference cyclic pentapeptide = 1.0; settings: specific activity, binding activity of cyclo[-D-Glu-Ala-D-aIle-Leu-D-Trp-] taken as 1.0; porcine heart membrane fraction, 125I-labeled endothelin-1, 25° C., 1 hour
T1 construct: A membrane fraction prepared from the porcine heart; from tissue; host or cells: porcine heart membrane fraction
T1 sequence (Q29010 21-427): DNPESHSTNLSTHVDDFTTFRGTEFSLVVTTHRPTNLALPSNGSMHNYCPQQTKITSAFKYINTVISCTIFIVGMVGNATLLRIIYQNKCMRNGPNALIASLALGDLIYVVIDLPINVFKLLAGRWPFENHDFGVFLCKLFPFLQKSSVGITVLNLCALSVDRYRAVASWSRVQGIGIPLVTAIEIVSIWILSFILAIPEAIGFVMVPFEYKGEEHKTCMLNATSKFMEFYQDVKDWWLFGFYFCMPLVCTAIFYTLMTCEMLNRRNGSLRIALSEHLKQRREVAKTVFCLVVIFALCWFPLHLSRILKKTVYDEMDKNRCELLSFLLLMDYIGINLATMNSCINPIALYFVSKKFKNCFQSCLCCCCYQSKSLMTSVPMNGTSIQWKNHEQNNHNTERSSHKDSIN
Method: Assay of Affinity for Receptor (1) . . . Binding Activity on ETA Receptor
A membrane fraction prepared from the porcine heart was diluted to 0.15 mg/ml by using a buffer solution for assay, and 100 μl of the resulting suspension of the membrane fraction was poured into each assay tube to use for assay. To this suspension of the membrane fraction was added 2 μl of 5 nM ^125 I-labeled endothelin-1 solution. Further, 3 μl of a test peptide solution was added thereto, followed by incubation at a temperature of 25° C. for 1 hour. Then, the resulting suspension was diluted with 900 μl of the buffer solution for assay cooled with ice, and thereafter separated into a supernatant and a precipitate by centrifugation at 12,000×g for 10 minutes. Cell membranes and an endothelin receptor A (ETA) embedded therein were contained in the precipitate, and radioactive iodine-labeled endothelin combined with the receptor was also recovered in the precipitate. Accordingly, the amount of radioactive iodine-labeled endothelin combined with the endothelin receptor A (ETA) was determined by measuring the amount of radioactive iodine contained in the precipitate with a gamma-ray counter. The cyclic pentapeptide described in Japanese Patent Application No. 2-413828/1990, cyclo[-D-Glu-Ala-D-aIle-Leu-D-Trp-], was used as a control compound. The numerical value of ETA shown in Table 1 is the value of specific activity, taking the binding activity of this cyclic pentapeptide on the receptor A as 1.0. The binding activity (IC50) of this cyclic pentapeptide on the ETA receptor is 2×10^-6 M.

CC(C)C[C@@H]1NC(=O)[C@@H](CC(C)C)NC(=O)[C@H](C)NC(=O)CNC(=O)[C@@H](CC(=O)O)NC(=O)[C@@H](Cc2c[nH]c3ccccc23)NC1=O [cyclo[-D-Asp-Gly-Ala-D-Leu-Leu-D-Trp-]]
ring closure, yield of all isomers ([1]; from CC(C)C[C@H](NC(=O)[C@@H](CC(C)C)NC(=O)[C@H](C)NC(=O)CNC(=O)[C@@H](CC(=O)OCc1ccccc1)NC(=O)[C@@H](Cc1c[nH]c2ccccc12)NC(=O)OC(C)(C)C)C(=O)O, HONB/DCC (active ester), TEA, DMF, 5.9 mM, 16.0 h, 4 steps): 19.2%

CC(C)C[C@@H]1NC(=O)[C@@H](CC(C)C)NC(=O)[C@@H](CCC(=O)O)NC(=O)[C@H](C)NC(=O)[C@@H](CC(=O)O)NC(=O)[C@@H](Cc2c[nH]c3ccccc23)NC1=O [cyclo[-D-Asp-Ala-D-Glu-D-Leu-Leu-D-Trp-]]
ring closure, yield of all isomers ([1]; from CC(C)C[C@H](NC(=O)[C@@H](CC(C)C)NC(=O)[C@@H](CCC(=O)OCc1ccccc1)NC(=O)[C@H](C)NC(=O)[C@@H](CC(=O)OCc1ccccc1)NC(=O)[C@@H](Cc1c[nH]c2ccccc12)NC(=O)OC(C)(C)C)C(=O)O, HONB/DCC (active ester), TEA, DMF, 4.97 mM, 16.0 h, 4 steps): 10.8%

CC(C)C[C@@H]1NC(=O)[C@@H](CC(C)C)NC(=O)[C@H](C)NC(=O)[C@H](CC(=O)O)NC(=O)[C@@H](CC(=O)O)NC(=O)[C@@H](Cc2c[nH]c3ccccc23)NC1=O [cyclo[-D-Asp-Asp-Ala-D-Leu-Leu-D-Trp-]]
ring closure, yield of all isomers ([1]; from CC(C)C[C@H](NC(=O)[C@@H](CC(C)C)NC(=O)[C@H](C)NC(=O)[C@H](CC(=O)OCc1ccccc1)NC(=O)[C@@H](CC(=O)OCc1ccccc1)NC(=O)[C@@H](Cc1c[nH]c2ccccc12)NC(=O)OC(C)(C)C)C(=O)O, HONB/DCC (active ester), TEA, DMF, 5.04 mM, 16.0 h, 4 steps): 17.8%

CC(C)C[C@@H]1NC(=O)[C@@H](C(C)(C)C)NC(=O)[C@H](CC(=O)O)NC(=O)[C@H](Cc2c[nH]c3ccccc23)NC(=O)[C@@H](CC(=O)O)NC(=O)[C@@H](Cc2c[nH]c3ccccc23)NC1=O [cyclo[-D-Asp-Trp-Asp-D-tLeu-Leu-D-Trp-]]
ring closure, yield of all isomers ([1]; from CC(C)C[C@H](NC(=O)[C@H](NC(=O)OC(C)(C)C)C(C)(C)C)C(=O)N[C@H](Cc1c[nH]c2ccccc12)C(=O)N[C@H](CC(=O)OCc1ccccc1)C(=O)N[C@@H](Cc1c[nH]c2ccccc12)C(=O)N[C@@H](CC(=O)OCc1ccccc1)C(=O)O, HONB/DCC (active ester), then TEA, DMF, 5.03 mM, 16.0 h, 4 steps): 42.8%

CC(C)C[C@@H]1NC(=O)[C@@H](c2cccs2)NC(=O)[C@H](CC(=O)OCc2ccccc2)NC(=O)[C@H](CC(=O)NCCc2c[nH]c3ccccc23)NC(=O)[C@@H](CC(=O)OCc2ccccc2)NC(=O)[C@@H](Cc2c[nH]c3ccccc23)NC1=O
ring closure, yield of all isomers ([1]; from CC(C)C[C@H](NC(=O)[C@H](NC(=O)[C@H](CC(=O)OCc1ccccc1)NC(=O)[C@H](CC(=O)NCCc1c[nH]c2ccccc12)NC(=O)[C@@H](CC(=O)OCc1ccccc1)NC(=O)[C@@H](Cc1c[nH]c2ccccc12)NC(=O)OC(C)(C)C)c1cccs1)C(=O)O, HONB/DCC (active ester), then diisopropylethylamine, DMF, 4.75 mM, 3 steps): 90.4%

CC(C)C[C@@H]1NC(=O)[C@@H](CC(C)C)NC(=O)[C@H](CCC(=O)O)NC(=O)[C@H](C)NC(=O)[C@@H](CC(=O)O)NC(=O)[C@@H](Cc2c[nH]c3ccccc23)NC1=O [cyclo[-D-Asp-Ala-Glu-D-Leu-Leu-D-Trp-]]
ring closure, yield of all isomers ([1]; from CC(C)C[C@H](NC(=O)[C@@H](CC(C)C)NC(=O)[C@H](CCC(=O)OCc1ccccc1)NC(=O)[C@H](C)NC(=O)[C@@H](CC(=O)OCc1ccccc1)NC(=O)[C@@H](Cc1c[nH]c2ccccc12)NC(=O)OC(C)(C)C)C(=O)O, HONB/DCC (active ester), TEA, DMF, 4.97 mM, 16.0 h, 4 steps): 24.1%

CC(C)C[C@@H]1NC(=O)[C@@H](CC(C)C)NC(=O)[C@H](CC(=O)O)NC(=O)[C@H](CC(=O)NCCc2c[nH]c3ccccc23)NC(=O)[C@@H](CC(=O)O)NC(=O)[C@@H](Cc2c[nH]c3ccccc23)NC1=O [cyclo[-D-Asp-Asn(CH2 CH2 -Ind)-Asp-D-Leu-Leu-D-Trp-]]
ring closure, yield of all isomers ([1]; from CC(C)C[C@H](NC(=O)[C@@H](CC(C)C)NC(=O)[C@H](CC(=O)OCc1ccccc1)NC(=O)[C@H](CC(=O)NCCc1c[nH]c2ccccc12)NC(=O)[C@@H](CC(=O)OCc1ccccc1)NC(=O)[C@@H](Cc1c[nH]c2ccccc12)NC(=O)OC(C)(C)C)C(=O)O, 4 steps): 19.4%

CC(C)C[C@@H]1NC(=O)[C@@H](CC(C)C)NC(=O)[C@H](CC(=O)O)NC(=O)[C@H](CCCNC(=O)CCc2ccccc2)NC(=O)[C@@H](CC(=O)O)NC(=O)[C@@H](Cc2c[nH]c3ccccc23)NC1=O [cyclo[-D-Asp-Orn(COCH2 CH2 Ph)-Asp-D-Leu-Leu-D-Trp-]]
ring closure, yield of all isomers ([1]; from CC(C)C[C@H](NC(=O)[C@@H](CC(C)C)NC(=O)[C@H](CC(=O)OCc1ccccc1)NC(=O)[C@H](CCCNC(=O)CCc1ccccc1)NC(=O)OC(C)(C)C)C(=O)N[C@H](Cc1c[nH]c2ccccc12)C(=O)N[C@H](CC(=O)OCc1ccccc1)C(=O)O, HONB/DCC (active ester), TEA, DMF, 5.05 mM, 16.0 h, 4 steps): 40.9%

CC(C)C[C@@H]1NC(=O)[C@@H](CC(C)C)NC(=O)[C@H](CC(=O)O)NC(=O)[C@@H]2CCCN2C(=O)[C@@H](CC(=O)O)NC(=O)[C@@H](Cc2c[nH]c3ccccc23)NC1=O [cyclo[-D-Asp-Pro-Asp-D-Leu-Leu-D-Trp-]]
ring closure, yield of all isomers ([1]; from CC(C)C[C@H](NC(=O)[C@@H](CC(C)C)NC(=O)[C@H](CC(=O)OCc1ccccc1)NC(=O)[C@@H]1CCCN1C(=O)[C@@H](CC(=O)OCc1ccccc1)NC(=O)[C@@H](Cc1c[nH]c2ccccc12)NC(=O)OC(C)(C)C)C(=O)O, HONB/DCC (ONB active ester), TEA, DMF, 5.1 mM, 16.0 h, 4 steps): 47.4%

CC(C)C[C@@H]1NC(=O)[C@@H](CC(C)C)NC(=O)[C@H](CC(=O)O)NC(=O)[C@H](Cc2c[nH]c3ccccc23)NC(=O)[C@@H](CC(=O)O)NC(=O)[C@@H](Cc2c[nH]c3ccccc23)NC1=O [cyclo[-D-Asp-Trp-Asp-D-Leu-Leu-D-Trp-]]
ring closure, yield of all isomers ([1]; from CC(C)C[C@H](NC(=O)[C@@H](CC(C)C)NC(=O)[C@H](CC(=O)OCc1ccccc1)NC(=O)[C@H](Cc1c[nH]c2ccccc12)NC(=O)[C@@H](CC(=O)OCc1ccccc1)NC(=O)[C@@H](Cc1c[nH]c2ccccc12)NC(=O)OC(C)(C)C)C(=O)O, HONB/DCC (ONB active ester), TEA, DMF, 4.97 mM, 16.0 h, 4 steps): 52.9%

CC(C)C[C@@H]1NC(=O)[C@@H](CC(C)C)NC(=O)[C@H](CC(=O)O)NC(=O)[C@H](CCCNC(=O)Cc2c[nH]c3ccccc23)NC(=O)[C@@H](CC(=O)O)NC(=O)[C@@H](Cc2c[nH]c3ccccc23)NC1=O [cyclo[-D-Asp-Orn(COCH2 -Ind)-Asp-D-Leu-Leu-D-Trp-]]
ring closure, yield of all isomers ([1]; from CC(C)C[C@H](NC(=O)[C@@H](CC(C)C)NC(=O)[C@H](CC(=O)OCc1ccccc1)NC(=O)[C@H](CCCNC(=O)Cc1c[nH]c2ccccc12)NC(=O)OC(C)(C)C)C(=O)N[C@H](Cc1c[nH]c2ccccc12)C(=O)N[C@H](CC(=O)OCc1ccccc1)C(=O)O, 4 steps): 12.5%

CC(C)C[C@@H]1NC(=O)[C@@H](CC(C)C)NC(=O)[C@H](CC(=O)O)NC(=O)[C@H](Cc2c[nH]c3ccccc23)NC(=O)[C@@H](CC(=O)O)NC(=O)[C@@H](Cc2cn(C)c3ccccc23)NC1=O [Example 95, Cyclo[--D--Asp--Trp--Asp--D--Leu--Leu--D--Trp(Me)--]]
Binding Activity on ET Receptor (R. act.) ET8 *2 [2]: 330
Binding Activity on ET Receptor (R. act.) ETA [3]: 110
